Common to all, as to experiment: NCI tumour cell line growth inhibition, 48 h
For experiment [1], the system named is NCI-H522 lung.
Experiment [2] has as its system MOLT-4 leukemia.
Experiment [3] concerns HOP-92 NSCLC.
Experiment [4] relates to A498 renal.
For experiment [5], the system named is BT-549 breast.
Experiment [6] has as its system KM12 colon.
Experiment [7] has as its system 786-0 renal.
For experiment [8], the system named is K-562 leukemia.
Experiment [9] relates to TK-10 renal.
Experiment [10] deals with OVCAR-3 ovarian.

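48-hour exposure; five concentrations; linearly interpolated endpoints. GI50: concentration for 50% inhibition of growth. TGI: concentration producing complete growth inhibition.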 A value given as a limit tells only on which side of the number the result lay.

Take `Cn1cc(C2=C(c3cc[nH]c3)C(=O)NC2=O)c2ccccc21`: the GI50 in [1] was 24.3 µM; in experiment [2], above 25 µM; in experiment [3], above 25 µM; in [4], 8.98 µM; in [5], above 17.9 µM; in [6] it was 25 µM. Moreover, the GI50 in experiment [7] is above 25 µM; in experiment [8], above 25 µM; in [9], above 25 µM; in experiment [10], above 22.7 µM. Moreover, the TGI in [1], in experiment [2], in [3], in [4], in experiment [5] and in experiment [6] was above 25 µM each time. Also, the TGI in [7], in experiment [8], in experiment [9] and in [10] was above 25 µM each time.
Regarding `COc1cccc(N2CCN(c3ncnc4cc[nH]c34)CC2)c1`, the GI50 is 8.78 µM in experiment [1]; 2.46 µM in experiment [2]; 1.65 µM in experiment [4]; 2.66 µM in experiment [5]; 9.8 µM in experiment [6]; 29.1 µM in [7]. Besides, the GI50 in experiment [8] is 1.26 µM; in [9], 25.5 µM; in experiment [10], 9.51 µM. Also, the TGI was 64.1 µM in experiment [1]; 21.4 µM in [2]; 79.3 µM in experiment [4]; 26.8 µM in experiment [5]; 85 µM in [6]; above 100 µM in experiment [7]. In addition, the TGI in experiment [8], in [9] and in experiment [10] was above 100 µM in each case.
Regarding `C=C(C)C1CCC2=CC(CC3(C)OC3C3=CC(C(=O)OC)=C(C1)O3)OC2=O` (stereo unspecified), the TGI in experiment [1], in [2], in experiment [3], in [4], in experiment [5] and in experiment [6] was above 100 µM each time. Also, the TGI in experiment [7], in experiment [8], in [9] and in [10] was above 100 µM throughout.
For `C=CCC(N[C@H](CO)c1ccccc1)c1ccccn1` (stereo partly specified), the GI50 in [1], in experiment [4], in experiment [5], in experiment [6], in experiment [7] and in experiment [8] was above 100 µM in each case. Besides, the GI50 in experiment [9] and in [10] was above 100 µM throughout. Also, the TGI in [1], in experiment [4], in experiment [5], in experiment [6], in experiment [7] and in experiment [8] was above 100 µM in each case. The TGI in experiment [9] and in [10] was above 100 µM in each case.
Turning to `COc1ccc(/C=C2\COc3ccc(O)c(O)c3C2=O)cc1OC`, the GI50 in [1] was 0.199 µM; in experiment [2] it was 1.05 µM; in [3], 2.18 µM; in experiment [4], 2.47 µM; in [5] it was 1.32 µM; in experiment [7] it was 1.51 µM. Besides, the figures for the GI50 in experiment [8], in experiment [9] and in experiment [10] were 0.467 µM, 2.66 µM and 0.539 µM, respectively. Moreover, the TGI is 0.473 µM in experiment [1]; 9.13 µM in experiment [2]; 5.91 µM in [3]; 8.28 µM in experiment [4]; 3.25 µM in experiment [5]; 3.87 µM in experiment [7]. The TGI is above 100 µM in experiment [8], 27.6 µM in [9] and 3.31 µM in experiment [10].
For the molecule `COC(=O)c1ccc(NC(=O)c2ccc(NC3=C(Cl)C(=O)N(Cc4ccccc4)C3=O)cc2)cc1`, the GI50 was 13.1 µM in experiment [1]; 13 µM in experiment [2]; 12.8 µM in experiment [3]; 28.4 µM in experiment [4]; 16.4 µM in experiment [5]; 25.7 µM in experiment [6]. The GI50 in [7] was 10.9 µM; in experiment [8], 19 µM; in [10], 14 µM. The TGI is 33.1 µM in experiment [1]; 25.6 µM in experiment [2]; 25.4 µM in experiment [3]; 58.6 µM in experiment [4]; 32.1 µM in [5]; above 100 µM in experiment [6]. Further, the TGI in experiment [7] is 22.9 µM; in [8], above 100 µM; in [10], 26.9 µM.
Consider `COc1ccc2c(CCCc3ccc(Cl)cc3Cl)c3[n+](cc2c1OC)CCc1cc2c(cc1-3)OCO2`, for which the GI50 was 0.228 µM in [3]; 1.76 µM in experiment [4]; 0.365 µM in experiment [5]; 0.362 µM in experiment [6]; 1.27 µM in experiment [7]. For the same molecule, the TGI in experiment [3] was determined as 1.14 µM; in experiment [4] it was 9 µM; in experiment [5], 1.4 µM; in [6] it was 1.48 µM; in experiment [7], 2.74 µM.
With `Cc1ccnc2c(NC(C)CCCN)cc(O)c(O)c12` (stereo unspecified), the GI50 in experiment [1] was 2.14 µM; in experiment [2], 6.61 µM; in [4], 33.4 µM; in [5] it was 36.1 µM; in [6], 31.5 µM; in [7], 71.2 µM. For the same molecule, the GI50 in [8] was 26.1 µM; in experiment [9] it was 47.7 µM; in experiment [10], 2.45 µM. Also, the TGI was 9.44 µM in experiment [1]; 34.5 µM in [2]; above 100 µM in [4]; above 100 µM in experiment [5]; above 100 µM in experiment [6]; above 100 µM in [7]. Moreover, the TGI in experiment [8] is above 100 µM; in experiment [9] it was above 100 µM; in experiment [10], 7.24 µM.
As to `CC(=O)CCc1ccc(Oc2c3c(nc4ccccc24)OCC3)cc1`, the GI50 is 56.2 µM in [1]; 91.9 µM in experiment [2]; 42.9 µM in experiment [3]; 9.22 µM in experiment [4]; 67.5 µM in experiment [5]; above 100 µM in [6]. The results for the GI50 in [7], in experiment [8] and in experiment [10] were above 100 µM, 59.3 µM and 31.6 µM, respectively. Also, the TGI was above 100 µM in [1]; above 100 µM in [2]; above 100 µM in experiment [3]; 50.1 µM in experiment [4]; above 100 µM in experiment [5]; above 100 µM in experiment [6]. Also, the TGI in experiment [7], in [8] and in experiment [10] was above 100 µM in each case.

The record behind these values is PubChem BioAssay (NCI).
